Measurements taken from patent publication US20240309060A1, “POLYPEPTIDE BAX/NPM INHIBITORS” (TRUSTEES OF BOSTON UNIVERSITY, priority 2023, published 2024).
Square brackets hold non-standard residues; d marks the D form. βAla = NCCC(=O)O

Key:
human NPM1 = human NPM1 (Homo sapiens, UniProt P06748); test: Surface plasmon resonance (SPR) binding of peptides to human NPM1; conditions: human NPM1, FIG. 14
Excerpt: FIG. 14 depicts a table of the association rate, dissociation rate and the calculated equilibrium dissociation constant for 10 representative therapeutic peptides as measured by Surface Plasmon Resonance (SPR). Mean rates are derived from at least three different peptide concentrations at levels below saturation with human NPM1. Cell survival data are normalized to the negative control (a GFP fragment of similar size to the therapeutic peptides) and represent the mean of at least 3 separate experiments.
FIG. 15 depicts an on-off rate map. A graph of the off-rate (x-axis) and on-rate (y-axis) of 10 representative peptides from different sets of modified peptides. Diagonal dash-lines represent the equilibrium dissociation constant (KD) estimates the NPM1 binding affinity for each peptide based on the distance to the lines.
The 3D helical wheel projection scan predicted that 5 of 6 peptide residues (except for L185) with intermediate effects on post-ischemic cell survival cluster in a single surface domain (FIGS. 6 and 7). These surface residues are likely regulating the binding affinity Kd) between the therapeutic peptide and NPM1, the human target protein. Since binding affinity (Kd) between the peptide drug and NPMB1 partly predicts its efficacy, a high throughput, quantitative surface plasmon resonance (SPR) assay was developed.
SPR was measured for 10 novel polypeptides with select single or double mutations. Both the measured peptide “on” and “off” rates for binding human NPM1 markedly differed (FIG. 15). […] For most modified peptides, greater protection against ischemic stress positively correlated with a low Kd. […] Overall, SPR data combined with cell survival data adequately informs the selection of therapeutic peptides based on the quantifiable effects of R group modifications on these parameters. The combination of SPR binding affinity and cell survival data in vitro effectively rank orders therapeutic peptides for in vivo testing in animals.

[1] = system: primary murine proximal tubule epithelial cells (PTEC); test: MTT cell survival assay of kidney cells after ischemic stress in vitro induced by metabolic inhibitors; assay type: cell-based; conditions: for Cell survival data (ranking of peptides): normalized to negative control GFP fragment, FIG. 14; for Cytoprotective effects during ischemic stress in vitro: peptides 100 nM, metabolic inhibitors 60 min, recovery 6 hr, vs GFP negative control, FIG. 13; for Effect of the residue (single alanine substitution) on cytoprotection / cell survival after ischemic stress: alanine scanning of NPMB1, PTEC, FIG. 2
Description: FIG. 2 depicts an NPMB1 Alanine Scan. Relative kidney cell survival rate after 70 min ischemic stress in vitro induced by metabolic inhibitors in the presence of NPMB1 (control) vs. 19 different NPMBx polypeptides with single alanine substitutions (2 additional NPMB1 alanine residues were not substituted). Residue numbers (x axis) reflect Bax sequence that binds human NPM1; Survival data are normalized to NPMB1; post-ischemic kidney cell survival is shown in tertiles: (left-most group: 5-40% survival; middle-group: 55-70% and third group: 80-95%); n=3 separate experiments.
Relative kidney cell survival rate after 70 min ischemic stress in vitro induced by transient exposure to metabolic inhibitors in the presence of NPMB polypeptides (Agents 2, 5, 7, 14 that reflect alanine scan polypeptides A173, A187, A179, A176) vs. a non—specific polypeptide (GFP fragment). Survival data normalized to baseline (no stress); *P<0.01vs. baseline; t P<0.05 vs. stress; data represent 3 separate experiments; error bars represent mean+SD.
FIGS. 13A-13B depict the cytoprotective effects of select therapeutic peptides during ischemic stress in vitro. Primary murine proximal tubule epithelial cells (PTEC) were transiently exposed to metabolic inhibitors for 60 min and allowed to recover for 6 hr. to simulate ischemia in vivo; MTT assay estimated cell survival. “Control” (open bars); is a GFP fragment of similar size to the therapeutic peptides was used a negative control; NPMB1 (prototype) serves as a positive control. […] All peptides contained the nuclear localizing sequence (NLS) to enhance peptide delivery to the kidney, a beta linker and both carboxy-and amino terminal modifications to reduce susceptibility to protease digestion; data are mean+standard error; n=3 separate experiments. Figure discloses SEQ ID NOS 139, 134-135, 128, 127, and 138, respectively, in order of appearance.
Structure activity relationships of NPMB1 derivatives were determined through alanine scanning In these studies, 19 polypeptides were produced using methods shown in FIGS. 8-11 and their effect of kidney cell survival after ischemic stress was characterized using the MTT cell survival assay. Based on determination of relative kidney cell survival rate, polypeptides were grouped according to activity as shown in FIG. 2 (orange: 5-40% survival; blue 55-70% survival, or green 80-95% survival).

[2] = molecular target: human nucleophosmin (NPM1) (Homo sapiens, UniProt P06748); conditions: previously discovered by the applicant's team; cited from earlier work
[3] = system: human nucleophosmin (NPM1); conditions: in vivo (Wang 2019); cited from earlier work
[4] = system: primary murine proximal tubule epithelial cells (PTEC); conditions: J Am Soc Nephrol 30: 50-62, 2019; cited from earlier work
[5] = system: in vivo mouse model of ischemic AKI; conditions: J Am Soc Nephrol 30: 50-62, 2019; cited from earlier work

Chain of human NPM1 (P06748 whole entry, the tested form may be a part): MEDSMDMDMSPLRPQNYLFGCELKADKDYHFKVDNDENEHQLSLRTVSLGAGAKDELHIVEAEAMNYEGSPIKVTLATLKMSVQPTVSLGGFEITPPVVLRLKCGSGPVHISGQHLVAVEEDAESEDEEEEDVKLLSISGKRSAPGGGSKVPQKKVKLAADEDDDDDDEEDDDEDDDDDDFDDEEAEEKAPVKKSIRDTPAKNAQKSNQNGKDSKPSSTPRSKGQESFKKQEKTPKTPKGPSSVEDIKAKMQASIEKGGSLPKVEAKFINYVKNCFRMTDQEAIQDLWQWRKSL
Chain of human nucleophosmin (NPM1) (Homo sapiens, UniProt P06748) (P06748 whole entry): as the sequence (P06748 whole entry, the tested form may be a part) above

For “Ac-KKRRRKKRRRKKRRRK-Bala-TVTIFVAGVLTASLTIWKKMG-OH (Ac-KKRRRKKRRRKKRRRK[βAla]TVTIFVAGVLTASLTIWKKMG-OH; SMILES CC[C@H](C)[C@H](NC(=O)[C@@H](NC(=O)[C@H](CC(C)C)NC(=O)[C@H](CO)NC(=O)[C@H](C)NC(=O)[C@@H](NC(=O)[C@H](CC(C)C)NC(=O)[C@@H](NC(=O)CNC(=O)[C@H](C)NC(=O)[C@@H](NC(=O)[C@H](Cc1ccccc1)NC(=O)[C@@H](NC(=O)[C@@H](NC(=O)[C@@H](NC(=O)[C@@H](NC(=O)CCNC(=O)[C@H](CCCCN)NC(=O)[C@H](CCCNC(=N)N)NC(=O)[C@H](CCCNC(=N)N)NC(=O)[C@H](CCCNC(=N)N)NC(=O)[C@H](CCCCN)NC(=O)[C@H](CCCCN)NC(=O)[C@H](CCCNC(=N)N)NC(=O)[C@H](CCCNC(=N)N)NC(=O)[C@H](CCCNC(=N)N)NC(=O)[C@H](CCCCN)NC(=O)[C@H](CCCCN)NC(=O)[C@H](CCCNC(=N)N)NC(=O)[C@H](CCCNC(=N)N)NC(=O)[C@H](CCCNC(=N)N)NC(=O)[C@H](CCCCN)NC(=O)[C@H](CCCCN)NC(C)=O)[C@@H](C)O)C(C)C)[C@@H](C)O)[C@@H](C)CC)C(C)C)C(C)C)[C@@H](C)O)[C@@H](C)O)C(=O)N[C@@H](Cc1c[nH]c2ccccc12)C(=O)N[C@@H](CCCCN)C(=O)N[C@@H](CCCCN)C(=O)N[C@@H](CCSC)C(=O)NCC(=O)O) [NPMB1-I-010]”, the “Kd / NPM1 binding affinity in words” value (human NPM1) was “relatively low Kd”.

In the case of “Ac-PKKKRKV-Bala-TATIAVAGVLTASLTIWKKMG-OMe [NPMB1-X-012]”, the “Kd / NPM1 binding affinity in words” value (human NPM1) is reported as “relatively low Kd values”, the “Cell survival data (ranking of peptides)” value [1] is reported as “most effective” and the “Cytoprotective effects during ischemic stress in vitro” value [1] is reported as “most robust protection”.

For “Ac-PKKKRKV-Bala-TATLFVAGVLTASLTIWKKMG-OMe [NPMB1-X-013]”, the “Kd / NPM1 binding affinity in words” value (human NPM1) was “relatively low Kd values”, the “Cell survival data (ranking of peptides)” value [1] was “most effective” and the “Cytoprotective effects during ischemic stress in vitro” value [1] was “most robust protection”.

For “Ac-PKKKRKV-Bala-TVTIAVAAVLTASLTIWKKMG-OMe [NPMB1-X-008]”, the “Kd / NPM1 binding affinity in words” value (human NPM1) was “relatively low Kd values”.

For “Ac-PKKKRKV-Bala-TVTIFVAGVLTASLQIWKKMG-OMe [NPMB1-V-003]”, the “Kd / NPM1 binding affinity in words” value (human NPM1) was “low Kd values (except NPMB1-V-003”.

For “Ac-PKKKRKV-Bala-TVTIFVAGVLTASLTIWKAMG-OMe [NPMB1-III-017]”, the “Effect of the residue (single alanine substitution) on cytoprotection / cell survival after ischemic stress” value [1] was “critical for cytoprotection”.

For “Ac-PKKKRKV-Bala-TVTIFVAGVLTASLTIWKKAG-OMe [NPMB1-III-018]”, the “Effect of the residue (single alanine substitution) on cytoprotection / cell survival after ischemic stress” value [1] was “moderate cytoprotective effects”.

For “Ac-PKKKRKV-Bala-TVTIFVAGVLTASLTIWKKMA-OMe [NPMB1-III-019]”, the “Effect of the residue (single alanine substitution) on cytoprotection / cell survival after ischemic stress” value [1] was “critical for cytoprotection”.

In the case of “Ac-PKKKRKV-Bala-TVTIFVAGVLTASLTIWKKMG-OH [NPMB1, prototype peptide, positive control]”, the “Binding to human nucleophosmin (NPM1)” value [2] is given as “binds”, the NPM/Bax protein interaction [3] is given as “competitively inhibits” and the “Kidney cell death in a cell-based assay” value [4] is given as “inhibits kidney cell death”. The “Kidney cell death in an in vivo mouse model of ischemic AKI” value [5] was “inhibits kidney cell death”.

For “Ac-PKKKRKV-Bala-TVTLFVAGVLTASLTAWKKMG-OMe [NPMB1-X-002]”, the “Kd / NPM1 binding affinity in words” value (human NPM1) was “relatively low Kd values”.

With “Ac-PKKKRKV-Bala-TVTLFVAGVLTASLTIWKKMG-OMe [NPMB1-V-001]” the “Kd / NPM1 binding affinity in words” value (human NPM1) was “relatively low NPM1 binding affinity”, the “Degree of cytoprotection during ischemic stress” value ([1]; alanine scan and pro-helical mutations) was “highly effective” and the “Cell survival data (ranking of peptides)” value [1] was “most effective”.

With “Ac-RREEERREEERREEEK-Bala-TVTIFVAGVLTASLTIWKKMG-OH (Ac-RREEERREEERREEEK[βAla]TVTIFVAGVLTASLTIWKKMG-OH; SMILES CC[C@H](C)[C@H](NC(=O)[C@@H](NC(=O)[C@H](CC(C)C)NC(=O)[C@H](CO)NC(=O)[C@H](C)NC(=O)[C@@H](NC(=O)[C@H](CC(C)C)NC(=O)[C@@H](NC(=O)CNC(=O)[C@H](C)NC(=O)[C@@H](NC(=O)[C@H](Cc1ccccc1)NC(=O)[C@@H](NC(=O)[C@@H](NC(=O)[C@@H](NC(=O)[C@@H](NC(=O)CCNC(=O)[C@H](CCCCN)NC(=O)[C@H](CCC(=O)O)NC(=O)[C@H](CCC(=O)O)NC(=O)[C@H](CCC(=O)O)NC(=O)[C@H](CCCNC(=N)N)NC(=O)[C@H](CCCNC(=N)N)NC(=O)[C@H](CCC(=O)O)NC(=O)[C@H](CCC(=O)O)NC(=O)[C@H](CCC(=O)O)NC(=O)[C@H](CCCNC(=N)N)NC(=O)[C@H](CCCNC(=N)N)NC(=O)[C@H](CCC(=O)O)NC(=O)[C@H](CCC(=O)O)NC(=O)[C@H](CCC(=O)O)NC(=O)[C@H](CCCNC(=N)N)NC(=O)[C@H](CCCNC(=N)N)NC(C)=O)[C@@H](C)O)C(C)C)[C@@H](C)O)[C@@H](C)CC)C(C)C)C(C)C)[C@@H](C)O)[C@@H](C)O)C(=O)N[C@@H](Cc1c[nH]c2ccccc12)C(=O)N[C@@H](CCCCN)C(=O)N[C@@H](CCCCN)C(=O)N[C@@H](CCSC)C(=O)NCC(=O)O) [NPMB1-I-011]” the “Kd / NPM1 binding affinity in words” value (human NPM1) was “relatively low Kd”.
